{"source": "paper PMC4745983", "about": "(Frontiers in Cell and Developmental Biology, 2016)", "key": {"E. coli CECT101": {"test_system": "E. coli CECT101", "type": "cell-based, Escherichia coli", "conditions": "growth curves, 18 h; experiment repeated three times", "protocol": "(§1) L. lactis strains were cultured in M17 broth supplemented with 0.5% (w/v) glucose (GM17) for genetic manipulation or in minimal expression medium (MEM) for protein expression at 30°C (Rink et al., [2005]). E. coli CECT101 was grown in Luria-Bertani broth aerated by shaking (200 rpm) at 37°C.\n(§2) The indicator strains were first cultured until OD (600 nm) reached 0.5. When testing the MIC value, the culture was diluted 1000 times with the appropriate medium. All the tests were performed with a temperature controlled plate reader (Tecan infinite F200, Tecan Group AG) in a 96-well plate (Greiner Bio-one). The peptides were first diluted in gradient with medium and then mixed with diluted indicator strains. The final concentration of the peptides ranged from 0.00625 to 0.8 μM against L. lactis MG1363 and from 0.25 to 32 μM against E. coli CECT101 in 100 μl volume. The plate was incubated at 30°C or 37°C for 18 h depending on the indicator strain being L. lactis or E. coli, respectively. OD (600 nm) was checked every 30 min. For E. coli, 2 min of shaking was performed before every check. When testing the activity of nisin against E. coli in the presence of EDTA, an EDTA solution was prepared and added to a final concentration of 50, 110, or 250 μM. The minimal concentration of peptide causing no observed growth of indicator strains was considered as the MIC value."}, "L. lactis MG1363": {"test_system": "L. lactis MG1363", "type": "cell-based, Lactococcus lactis", "conditions": "from MIC values", "protocol": "as §1, §2"}, "E. coli CIP": {"test_system": "E. coli CIP", "experiment": "Growth curve inhibition of E. coli CIP", "type": "cell-based, Escherichia coli", "conditions": "growth curves of 8μM nisin and 8μM GNT16; Luria-Bertani broth, 37°C"}, "[1]": {"test_system": "Enterobacter aerogenes CECT684", "experiment": "Growth curve inhibition of Enterobacter aerogenes CECT684", "type": "cell-based", "conditions": "growth curves of 8μM nisin and 8μM GNT16; GM17, 37°C"}, "E. coli O157:H7": {"test_system": "E. coli O157:H7", "conditions": "indicator strain E. coli O157:H7; ref Bikker et al., [2006]; cited from earlier work", "from_the_text": "(§3) Table 1 List of selected peptides with anti-Gram-negative bacteria activity. | column: MIC(μM)"}, "E. coli UB1005": {"test_system": "E. coli UB1005", "conditions": "indicator strain E. coli UB1005; ref Hilpert et al., [2005]; cited from earlier work", "from_the_text": "as §3"}, "E. coli ATCC 700928": {"test_system": "E. coli ATCC 700928", "conditions": "indicator strain E. coli ATCC 700928; ref Sainath Rao et al., [2013]; cited from earlier work", "from_the_text": "as §3"}}, "note": "Marks after values point to notes of the source that are not given here."}
{"compound": "C=C1NC(=O)[C@H]([C@@H](C)CC)NC(=O)[C@H](NC(=O)/C(=C/C)NC(=O)[C@@H](N)[C@@H](C)CC)CSC[C@@H](C(=O)N[C@H]2C(=O)N3CCC[C@H]3C(=O)NCC(=O)N[C@H](C(=O)N[C@@H](CCCCN)C(=O)N[C@H]3C(=O)NCC(=O)N[C@@H](C)C(=O)N[C@@H](CC(C)C)C(=O)N[C@@H](CCSC)C(=O)NCC(=O)N[C@H](C(=O)N[C@@H](CC(N)=O)C(=O)N[C@@H](CCSC)C(=O)N[C@@H](CCCCN)C(=O)N[C@H]4C(=O)N[C@@H](C)C(=O)N[C@H]5C(=O)N[C@@H](CS[C@H]4C)C(=O)N[C@@H](Cc4c[nH]cn4)C(=O)N[C@H](C(=O)N[C@@H](CO)C(=O)N[C@H](C(=O)N[C@@H](Cc4c[nH]cn4)C(=O)N[C@H](C(=O)NC(=C)C(=O)N[C@@H](CCCCN)C(=O)N4CCC[C@H]4C(=O)N[C@@H](CCCNC(=N)N)C(=O)N4CCC[C@H]4C(=O)N4CCC[C@H]4C(=O)N[C@@H](Cc4c[nH]cn4)C(=O)N4CCC[C@H]4C(=O)N[C@@H](CCCNC(=N)N)C(=O)N[C@@H](CC(C)C)C(=O)O)C(C)C)[C@@H](C)CC)CS[C@H]5C)CS[C@H]3C)CS[C@H]2C)NC(=O)[C@H](CC(C)C)NC1=O", "note": "[GNT16]", "values": [{"measurement": "Concentration that fully inhibits growth of E. coli CECT101 within 18 h (Figure 3)", "setting": "E. coli CECT101", "value": 8, "unit": "µM"}, {"measurement": "Decrease of activity against L. lactis MG1363 relative to nisin", "setting": "L. lactis MG1363", "value": 32, "unit": "times"}, {"measurement": "Inhibitory activity against E. coli CIP compared with nisin", "setting": "E. coli CIP", "value": "equal or slightly better inhibitory activity than nisin"}, {"measurement": "Inhibitory activity against Enterobacter aerogenes CECT684 compared with nisin", "setting": "[1]", "value": "equal or slightly better inhibitory activity than nisin"}]}
{"compound": "GKPRPYSPRPTSHPRPIRV [Drosocin]", "values": [{"measurement": "MIC", "setting": "E. coli O157:H7", "value": "25^c μM"}]}
{"compound": "RIWVIWRR-NH2 [Bac8c]", "values": [{"measurement": "MIC", "setting": "E. coli UB1005", "value": "1.7^e μM"}]}
{"compound": "RLLFRKIRRLKR [EC5]", "values": [{"measurement": "MIC", "setting": "E. coli ATCC 700928", "value": "4.8^d μM"}]}
